# Data as given in PMC9718554, “Discovery of a fragment hit compound targeting D-Ala:D-Ala ligase of bacterial peptidoglycan biosynthesis” (Journal of Enzyme Inhibition and Medicinal Chemistry, 2022).
# Experiments:
# DdlB from E. coli = target: T1, DdlB from E. coli (Escherichia coli, UniProt P07862); assay: Steady-state kinetics, Ki determination against DdlB (ATP varied); assay type: biochemical
# T1 construct: made in house; host or cells: E. coli
# Protocol: Binding of 3 to DdlB was confirmed by an orthogonal biophysical assay, surface plasmon resonance (SPR). The protein was covalently attached to the surface of the CM5 chip (∼7700 response units), and the ligand was titrated across the surface (Figure 2(B)). […] Steady-state kinetics were performed to gain mechanistic insight into the inhibition of compound 3 (Supplementary Figure S3 and Table S6).
# For compound 3, Ki values were determined against DdlB from E. coli. Ki determinations were performed under similar conditions as described for DdlB inhibition assay, where different concentration of one substrate and fixed concentration of the other were used. The concentration of ATP (50, 100, 200, 300 and 500 µM) was varied at fixed concentration of D-Ala (700 µM). The concentrations of compound 3 were 0, 25, 50, 100, 250, 500, and 1000 µM. After 20 min of incubation, […] of Biomol® green reagent was added, and absorbance was read at 650 nm after 5 min. Initial data were fitted to competitive, (v/V = [S]/{KM(1 + [I]/KI)+ [S]}), non-competitive (v/V = [S]/{(1 + [I]/KI)(KM+ [S])}), uncompetitive (v/V = [S]/{KM+ [S](1 + [I]/KI)}) inhibition models in which v is observed reaction rate, V is the maximum rate, KM is the Michaelis constant, using SigmaPlot 12.0 software. The best fit was taken as the one having the highest R^2, the lowest standard error and the narrowest 95% confidence interval in each parameter (see Supplementary Table S6).
# [1] = target: E. coli MurA enzyme (UDP-N-acetylglucosamine enolpyruvyl transferase) (Escherichia coli, UniProt P0A749); assay: MurA inhibition assay (malachite green, deselection); settings: read-out: MurA inhibition, RA (Residual Activity)
# Protocol: Inhibition of the enzyme was determined using an end-point malachite green assay by detecting the orthophosphate formed during the enzymatic reaction. […] The final DMSO concentration was 5%. […] A parallel experiment without the enzyme was performed to detect insoluble compounds under the assay conditions and subtracted from each measurement. All experiments were performed in duplicates. RAs were calculated with respect to blank experiments without tested compounds and with 5% DMSO.
# E. coli D22 = assay: MIC by broth microdilution; assay type: cell-based; settings: Escherichia coli, D22, 20 h
# Protocol: (§1) The antibacterial activities of 3 were determined according to the European Committee for […] Susceptibility Testing recommendations and Clinical Laboratory Standards Institute protocol. Compound was tested against reference strains of E. coli and Staphylococcus aureus and against two mutant E. coli strains. E. coli D22 bears a mutation in the LpxC gene that increases membrane permeability, whereas E. coli N43 is an AcrA knockout strain (knockout of the cell membrane pump). […] The most plausible reason is the low on target activity of the hit fragment, however, also the poor penetration into the bacterial cell or efflux pumps effect cannot be ruled out. Although the lack of antibacterial activity is a limitation, hit compound 3 represents a fragment-sized starting point for the development of new compounds with increased DdlB inhibitory potency as well as antibacterial activity.
# (§2) Minimum inhibitory concentrations (MICs) for 3 were determined by broth microdilution in Cation-adjusted Mueller-Hinton broth (MH) with TES, TREK Diagnostic Systems Ltd. against S. aureus ATCC 29213, E. coli ATCC 25922, E. coli N43 and E. coli D22. All of the experiments were performed in duplicate in 96-well plate format according to CLSI guidelines and European Committee for Antimicrobial Susceptibility Testing recommendations. The bacterial suspension of a specific bacterial strain was diluted with MH broth to obtain a final inoculum of 5 × 10^5 CFU/mL in the assay. Compound 3 dissolved in DMSO and inoculum were mixed together and incubated for 20 h at 35 °C. After incubation, the minimal inhibitory concentration (MIC) values were determined by visual inspection as the lowest dilution of compounds showing no turbidity. The MICs were determined against S. aureus (ATCC 29213), E. coli (ATCC 25922), E. coli N43, and E. coli D22 bacterial strains. D-Cycloserine was used as a positive control.
# E. coli N43 = assay: MIC by broth microdilution; assay type: cell-based; settings: Escherichia coli, N43, 20 h
# Protocol: as §1, §2
# S. aureus ATCC 29213 = assay: MIC by broth microdilution; assay type: cell-based
# Protocol: as §1, §2
# E. coli ATCC 25922 = assay: MIC by broth microdilution; assay type: cell-based
# Protocol: as §1, §2
# [2] = target: T2, E. coli DdlB enzyme (D-alanine:D-alanine ligase) (Escherichia coli, UniProt P07862); assay: biochemical; settings: 700 μM D-Ala, 100 μM ATP; read-out: DdlB inhibition IC50
# T2 construct: made in house; host or cells: E. coli
# DdlB = DdlB (Escherichia coli, UniProt P07862); assay: Surface plasmon resonance, immobilised DdlB; assay type: binding, E. coli; settings: steady-state affinity model, three titrations, 25 °C; read-out: apparent equilibrium dissociation constant KD
# Protocol: Figure 2. Fragment hit 3 targeting DdlB. (A) Dose–response inhibition of DdlB for 3. (B) SPR analysis of 3 with the immobilised DdlB. 3 was injected across DdlB in serial dilutions ranging from 78.125 to 5000 µM for 40 s at a flow rate of 30 μL/min, and dissociation was followed for 40 s. […] (C) Data were fitted to the steady-state affinity model to obtain the apparent equilibrium dissociation constant (KD). KD values are the mean ± standard deviation of three titrations. (D) ATP (blue sticks) and D-Ala-D-Ala (white sticks) binding sites of DdlB (PDB ID: 4C5C) with the co-crystallised ligands. (E) Computational docking of 3 to the ATP-binding site using extra-precision Glide (blue sticks) and QM-Polarized Ligand Docking (orange sticks) (PDB ID: 4C5C).
# Binding of 3 to DdlB was confirmed by an orthogonal biophysical assay, surface plasmon resonance (SPR). […]
# The SPR measurements were performed at the Infrastructural Centre for Analysis of Molecular Interactions at the Department of Biology, University of Ljubljana on a Biacore T200 (GE Healthcare) at 25 °C. […] The data were analysed with the Biacore T200 Evaluation Software and KD was determined by fitting the data to the steady state affinity model. The average KDs and standard deviations were determined from three titrations of 3.
# Chain of E. coli MurA enzyme (UDP-N-acetylglucosamine enolpyruvyl transferase) (P0A749 whole entry): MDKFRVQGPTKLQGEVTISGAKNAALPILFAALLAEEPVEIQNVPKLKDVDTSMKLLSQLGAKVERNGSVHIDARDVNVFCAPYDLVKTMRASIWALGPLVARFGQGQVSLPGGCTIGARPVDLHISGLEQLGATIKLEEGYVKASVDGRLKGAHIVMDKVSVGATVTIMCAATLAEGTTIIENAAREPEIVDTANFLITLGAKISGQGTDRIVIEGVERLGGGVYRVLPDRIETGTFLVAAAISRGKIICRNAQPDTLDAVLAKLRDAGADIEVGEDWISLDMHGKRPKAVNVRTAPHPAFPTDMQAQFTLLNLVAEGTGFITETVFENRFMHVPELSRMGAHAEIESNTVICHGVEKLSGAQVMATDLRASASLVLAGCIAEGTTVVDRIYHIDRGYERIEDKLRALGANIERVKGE
smiles,measurement,setting,value
"Cc1cccc(-c2ccnc3c(C(=O)O)cnn23)c1 [Compound 3, 7-(m-Tolyl)pyrazolo[1,5-a]pyrimidine-3-carboxylic acid]",Ki,"DdlB from E. coli; Competitive (full) model, best fit, ATP varied, D-Ala 700 µM",20.7 ± 4.5 µM
same,Ki,DdlB from E. coli; Competitive (partial) model,20.7 ± 5.2 µM
same,Ki,DdlB from E. coli; Noncompetitive (full) model,221 ± 21.7 µM
same,inhibition mechanism,DdlB from E. coli; with respect to ATP,competitive inhibitor with respect to ATP
same,remaining activity at 5000 µM,[1],64%
same,MIC,E. coli D22,> 128 µg/mL
same,MIC,E. coli N43,> 128 µg/mL
same,antibacterial activity (in words),S. aureus ATCC 29213; S. aureus,no antibacterial activity
same,MIC,"S. aureus ATCC 29213; Staphylococcus aureus, ATCC29213, 20 h",> 128 µg/mL
same,antibacterial activity (in words),E. coli ATCC 25922; E. coli,no antibacterial activity
same,MIC,"E. coli ATCC 25922; Escherichia coli, ATCC25922, 20 h",> 128 µg/mL
same,IC50,[2],168 µM
same,Kd,DdlB,3200 µM
